Experimental data taken from USRE47689E1, “Compounds for treating spinal muscular atrophy” (PTC Therapeutics, Inc., priority 2011, dated 2019).
Counter-ions that a name gives are not always drawn. Like-named read-outs stand apart in the source and are kept apart here.

Tests used:
[1] = system: SMN2 minigene (full length SMN2 minigene mRNA containing SMN2 exon 7); assay: SMN2 minigene mRNA splicing RT-qPCR assay in cultured cells; assay type: cell-based, human; conditions: for EC (1.5-fold): Homo sapiens, HEK293-H, read-out: EC1.5x for production of full length SMN2 mRNA
Outline: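 Full-length SMN2 minigene mRNA (exon 7 included), minigene-specific and not endogenous SMN, quantified by RT-qPCR multiplexed with GAPDH in stably transfected HEK293H cells after 24 h compound exposure at 37° C. Abundance from efficiency-corrected Ct, normalized to GAPDH and vehicle; EC1.5x reported as star bins.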

Smn protein = Smn protein assay in cultured cells (SMN HTRF); assay type: cell-based, human; conditions: 48 hours; for maximum fold (Fold) increase of Smn protein: SMA patient fibroblast cells, 7-point concentration data, fold increase relative to vehicle control (SMN HTRF); for EC1.5x (concentration giving 1.5-fold Smn protein increase): SMA Type 1 patient fibroblast cells (GM03813), 7-point concentration curve, SMN HTRF, concentration producing 1.5 times Smn protein vs DMSO vehicle control, read-out: EC1.5x for Smn protein expression
Outline: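 Smn in SMA fibroblast lysates, measured by anti-SMN HTRF after 48 h compound exposure; EC1.5x from fold change over vehicle.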

[2] = HEK293H cells stably transfected with SMN2-A minigene, 24 hours, 7-point concentration curve, 1.5-fold relative to vehicle-treated cells

SMILES | melting point | EC (1.5-fold) [1, 2] | maximum fold (Fold) increase of Smn protein (Smn protein) | EC1.5x (concentration giving 1.5-fold Smn protein increase) (Smn protein) | further results
Cn1ccc(-c2cc3ccc(N4CCNCC4)cc3oc2=O)n1 [Cpd 38, 3-(1-methyl-1H-pyrazol-3-yl)-7-(piperazin-1-yl)-2H-chromen-2-one] | 224 to 228 °C | – | – | – | EC (1.5-fold) ([1]; 24 h): 1 to 3 µM
Cc1cccn2cc(-c3cc4ccc(N5CCNCC5)cc4oc3=O)nc12 [Compound 44, 3-(8-methylimidazo[1,2-a]pyridin-2-yl)-7-(piperazin-1-yl)-2H-chromen-2-one] | 190 to 193 °C | 0.3 to 1 µM | – | – | –
CCN1CC[C@@H](Oc2ccc3cc(-c4nc5ccccc5s4)c(=O)oc3c2)C1 [Compound 127, 3-(1,3-benzothiazol-2-yl)-7-{[(3R)-1-ethylpyrrolidin-3-yl]oxy}-2H-chromen-2-one] | 195 to 198 °C | 1 to 3 µM | – | – | –
COc1cccc(-c2cc3ccc(N4CCNCC4)cc3oc2=O)c1 [Compound 77, 3-(3-methoxyphenyl)-7-(piperazin-1-yl)-2H-chromen-2-one] | 127 to 130 °C | 3 to 30 µM | – | – | –
Cc1cn2cc(-c3cc4ccc(C5=CCNCC5)cc4oc3=O)nc2c(C)n1 | 205 to 211 °C | – | – | – | –
O=c1oc2cc(OC3CCNC3)ccc2cc1-c1cn2cccnc2n1 (stereo in doubt) (as salt: hydrochloride) [Cpd 321, 3-(imidazo[1,2-a]pyrimidin-2-yl)-7-[(3R)-pyrrolidin-3-yloxy]-2H-chromen-2-one hydrochloride (1:2)] | 240 to 250 °C | – | – | – | –
O=c1oc2cc(N3CCNCC3)ccc2cc1Nc1ccccn1 [Cpd 32, 7-(piperazin-1-yl)-3-(pyridin-2-ylamino)-2H-chromen-2-one] | 191 to 194 °C | – | – | – | EC (1.5-fold) ([1]; 24 h): 3 to 30 µM
O=c1oc2cc(N3CCNCC3)ccc2cc1-c1nc2c(Cl)cccc2s1 (as salt: hydrochloride) [Cpd 5, 3-(4-chloro-1,3-benzothiazol-2-yl)-7-(piperazin-1-yl)-2H-chromen-2-one hydrochloride] | 290 °C (dec.) | – | – | – | –
O=c1oc2cc(N3CCNCC3)ccc2cc1-c1nc2ccccc2s1 (as salt: hydrochloride) [Cpd 4, 3-(1,3-benzothiazol-2-yl)-7-(piperazin-1-yl)-2H-chromen-2-one hydrochloride] | 250 °C (dec.) | – | – | – | –
Cl.O=c1oc2cc(N3CCNCC3)ccc2cc1-c1nc2c(C(F)(F)F)cccc2o1 | 339 to 341 °C | – | – | – | –
O=c1oc2cc(N3CCNCC3)ccc2cc1-c1cn2cc(F)ccc2n1 [Compound 103, 3-(6-fluoroimidazo[1,2-a]pyridin-2-yl)-7-(piperazin-1-yl)-2H-chromen-2-one] | – | 0.3 to 1 µM | ** (fold increase between >1.2 and ≤1.35) | – | –
CCN1CCC(c2ccc3cc(-c4cc5c(C)nc(C)cn5n4)c(=O)oc3c2)CC1 [Cpd 853, 3-(4,6-dimethylpyrazolo[1,5-a]pyrazin-2-yl)-7-(1-ethylpiperidin-4-yl)-2H-chromen-2-one] | – | 1 to 3 µM | * (maximum fold increase of ≤1.2) | – | –
Cc1ccn2cc(-c3cc4ccc(O[C@@H]5CCNC5)cc4oc3=O)nc2c1 (as salt: hydrochloride) [Compound 323, 3-(7-methylimidazo[1,2-a]pyridin-2-yl)-7-[(3R)-pyirolidin-3-yloxy]-2H-chromen-2-one hydrochloride (1:2)] | 271 to 275 °C | – | – | – | –
C[C@H]1CN(c2ccc3cc(-c4cc5ccccn5c4)c(=O)oc3c2)CCN1 [Compound 565, 3-(indolizin-2-yl)-7-[(3S)-3-methylpiperazin-1-yl]-2H-chromen-2-one] | – | 1 to 3 µM | * (maximum fold increase of ≤1.2) | – | –
O=c1oc2cc(N3CCNCC3)ccc2cc1-c1ccc2nccn2c1 [Compound 980, 3-(imidazo[1,2-a]pyridin-6-yl)-7-(piperazin-1-yl)-2H-chromen-2-one] | – | 0.3 to 1 µM | *** (fold increase between >1.35 and ≤1.5) | – | –
Cc1cn2cc(-c3cc4ccc(N5CC6(CNC6)C5)cc4oc3=O)cc(F)c2n1 [Compound 985, 7-(2,6-diazaspiro[3.3]hept-2-yl)-3-(8-fluoro-2-methylimidazo[1,2-a]pyridin-6-yl)-2H-chromen-2-one] | – | < 0.1 µM | ***** (fold increase >1.65) | < 300 nM | –
Cc1cn2cc(-c3cc4c(F)cc(N5CCN(C)[C@@H](C)C5)cc4oc3=O)nc2cn1 [Compound 659, 7-[(3S)-3,4-dimethylpiperazin-1-yl]-5-fluoro-3-(6-methylimidazo[1,2-a]pyrazin-2-yl)-2H-chromen-2-one] | – | < 0.1 µM | **** (fold increase between >1.5 and ≤1.65) | < 300 nM | –
Cl.O=c1oc2cc(N3CCNCC3)ccc2cc1-c1nc2cccc(C(F)(F)F)c2o1 | 297 to 307 °C | – | – | – | –
O=c1oc2cc(N3CCNCC3)ccc2cc1-c1nc2ccccc2s1 [Cpd 4, 3-(1,3-benzothiazol-2-yl)-7-(piperazin-1-yl)-2H-chromen-2-one hydrochloride] | – | 1 to 3 µM | * (maximum fold increase of ≤1.2) | – | –
Cc1cn2cc(-c3cc4ccc(N5CCN[C@@H](C)C5)cc4oc3=O)nc2c(C)n1 [Compound 537, 3-(6,8-dimethylimidazo[1,2-a]pyrazin-2-yl)-7-[(3S)-3-methylpiperazin-1-yl]-2H-chromen-2-one] | – | < 0.1 µM | ***** (fold increase >1.65) | < 300 nM | –
Cc1cn2cc(-c3cc4ccc(N5CCN[C@@H](C)C5)cc4oc3=O)ccc2n1 [Compound 664, 3-(2-methylimidazo[1,2-a]pyridin-6-yl)-7-[(3S)-3-methylpiperazin-1-yl]-2H-chromen-2-one] | – | < 0.1 µM | ***** (fold increase >1.65) | < 300 nM | –
Cc1cn2cc(-c3cc4ccc(N5CCN(C)[C@@H](C(C)C)C5)cc4oc3=O)nc2c(C)n1 [Compound 809, 3-(6,8-dimethylimidazo[1,2-a]pyrazin-2-yl)-7-[(3S)-4-methyl-3-(propan-2-yl)piperazin-1-yl]-2H-chromen-2-one] | – | 0.3 to 1 µM | **** (fold increase between >1.5 and ≤1.65) | 1000 to 3000 nM | –
Cc1cn2cc(-c3cc4ccc(N5CCC(C#N)CC5)cc4oc3=O)nc2c(C)n1 [Compound 974, 1-[3-(6,8-dimethylimidazo[1,2-a]pyrazin-2-yl)-2-oxo-2H-chromen-7-yl]piperidine-4-carbonitrile] | – | 3 to 30 µM | ** (fold increase between >1.2 and ≤1.35) | – | –
Cc1cc2cc(-c3cc4ccc(N5CCN(C6CC6)CC5)cc4oc3=O)oc2c(C)n1 [Compound 798, 7-(4-cyclopropylpiperazin-1-yl)-3-(5,7-dimethylfuro[2,3-c]pyridin-2-yl)-2H-chromen-2-one] | – | 0.1 to 0.3 µM | **** (fold increase between >1.5 and ≤1.65) | 300 to 1000 nM | –
O=c1oc2cc(N3C[C@@H]4C[C@H]3CN4)ccc2cc1-c1cn2cccnc2n1 (as salt: hydrochloride) [Compound 129, 7-[(1S,4S)-2,5-diazabicyclo[2.2.1]hept-2-yl]-3-(imidazo[1,2a]pyrimidin-2-yl)-2H-chromen-2-one hydrochloride (1:3)] | > 300 °C | – | – | – | –
CSc1nccn2cc(-c3cc4ccc(N5CCCN(C)CC5)cc4oc3=O)nc12 [Compound 401, 7-(4-methyl-1,4-diazepan-1-yl)-3-[8-(methylsulfanyl)imidazo[1,2-a]pyrazin-2-yl]-2H-chromen-2-one] | – | 1 to 3 µM | * (maximum fold increase of ≤1.2) | – | –
Cc1cn2cc(-c3cc4ccc(N5C[C@H]6CCCN(C)[C@H]6C5)cc4oc3=O)nc2c(C)n1 [Compound 782, 3-(6,8-dimethylimidazo[1,2-a]pyrazin-2-yl)-7-[(4aR,7aR)-1-methyloctahydro-6H-pyrrolo[3,4-b]pyridin-6-yl]-2H-chromen-2-one] | – | – | **** (fold increase between >1.5 and ≤1.65) | < 300 nM | EC1.5x for production of full length SMN2 mRNA [1, 2]: ***** (EC1.5x≤0.1 μM)
O=C(Nc1ccccc1)c1cc2ccc(N3CCNCC3)cc2oc1=O (as salt: trifluoroacetate) [Cpd 3, 2-oxo-N-phenyl-7-(piperazin-1-yl)-2H-chromene-3-carboxamide trifluoroacetate] | 238 to 248 °C | – | – | – | –
Cc1cn2cc(-c3cc4ccc(N5CCN(C6CC6)CC5)cc4oc3=O)cc2c(C)n1 [Compound 752, 7-(4-cyclopropylpiperazin-1-yl)-3-(1,3-dimethylpyrrolo[1,2-a]pyrazin-7-yl)-2H-chromen-2-one] | – | < 0.1 µM | **** (fold increase between >1.5 and ≤1.65) | 300 to 1000 nM | –
Cc1cn2cc(-c3cc4ccc(C5CCN(C)CC5)cc4oc3=O)nc2c(C)n1 [Compound 748, 3-(6,8-dimethylimidazo[1,2-a]pyrazin-2-yl)-7-(1-methylpiperidin-4-yl)-2H-chromen-2-one] | – | < 0.1 µM | ***** (fold increase >1.65) | < 300 nM | –
